Literature values as cited in patent EP0225409A1, “Organic amine phosphonic acid complexes for the treatment of calcific tumors” (THE DOW CHEMICAL COMPANY, priority 1985, dated 1987).

Conditions: 24 hours after injection

For NC(c1ccc(O)c([131I])c1)(P(=O)(O)O)P(=O)(O)O [α-amino-(3-iodo-4-hydroxybenzylidene)diphosphonate], the “injected dose present in the thyroid” value is given as 0.1%.
